# Literature values in patent US20250325480A1, “Lipid Nanoparticle Compositions and Methods For Formulating Insoluble Drugs” (RESPIRERX PHARMACEUTICALS, INC., priority 2022, published 2025).
# What was measured:
# [1] = not given; remark: listed apart in the source
smiles,measurement,setting,value
"CCCCCc1cc(O)c2c(c1)OC(C)(C)[C@@H]1CCC(C)=C[C@@H]21 [Dronabinol, (−)-trans-Δ^9-tetrahydrocannabinnol]",Metabolic breakdown upon first pass through the liver,as presently formulated,approximately 80%
same,Half-life,in vivo,2 to 3 h
same,Adverse side effects,"[1]; 10 mg dose, Marinol package insert",unacceptable adverse side effects
same,OSA alleviating effects,"[1]; 2.5 and 10 mg doses, first 4 hours of 8-hour test period",therapeutically equivalent OSA alleviating effects
same,Therapeutic effects in OSA,[1]; second 4 hours of 8-hour test period,only the 10 mg dose produced therapeutic effects
